Experimental data published in patent publication US11377423B2, “Inhibitors of histone deacetylase” (The Broad Institute, Inc., priority 2012, dated 2022).
Values joined by “and” are separate entries in the source; they are usually repeats but may differ in a detail not shown here. Equal entries are not always repeated. Where two headings read alike, the source gives them in different places.

Tests used:
HDAC2 [1] = biological target: T1, HDAC2 (Homo sapiens (Human), UniProt Q92769); assay: Caliper HDAC enzymatic endpoint assay, HDAC2; type: biochemical
Protocol: Substrate A was prepared as 2 mM in DMSO. Its final concentration in the assay for HDACs 1, 2, 3, 6 is 2 μM.
Below is the HDAC and Substrate concentration used in this assay.

HDAC2 [2] = biological target: T1, HDAC2; assay: Kinetics of the inhibition of HDAC2
HDAC1 = HDAC1 (Homo sapiens (Human), UniProt Q13547); assay: Binding constant from HDAC1 inactivation kinetics
Protocol: HDAC1 inactivation kinetic constant was determined by curve-fitting of the plot to a first-order rate equation.

INS-1E cells [3] = assay: Insulin gene Ins1 and Ins2 expression by qPCR; type: cell-based, rat; conditions: 10 μM, glucolipotoxicity, 24 h
Protocol: INS-1E cells (one million/well) were seeded in 6-well plates in 2 mL complete medium. After two days, medium was removed and cells were exposed to 2 mL medium/well with the indicated concentrations of palmitate, glucose, HDAC inhibitors and/or vehicle. RNA was purified (Qiagen) and cDNA synthesis performed done according to manufacturers' guidelines (Applied Biosystems) and real-time PCR performed using the SYBR green method (Applied Biosystems). Each cDNA sample in triplicate was subjected to two individual PCR amplifications either for the gene of interest or the reference gene β-actin. See table below for primer sequences. Compounds of the invention counteract glucolipotoxic reductions in insulin gene […] and […] expression. […] The gene expression in FIGS. 13A and 13B were analyzed by qPCR. […] Glucose-stimulated insulin secretion and total insulin content were assessed by ELISA. Data are presented as fold to CTRL+SEM, n=3-5, ns=not significant, *p<0.05, **p<0.01, ***p<0.001 vs. CTRL, #p<0.05, ##p<0.01, ###p<0.001 vs. respective treatment. ANOVA with Tukey- or Dunnet-corrected test, or Student's t-test (insulin content).

INS-1E cells [4] = assay: ROS formation (CM-H2DCFDA probe); type: cell-based, rat; conditions: 10 μM, GLT, 48 hrs
Protocol: INS-1E cells (50,000 cells/well) were seeded in 96-well plates in 100 uL complete medium. Two days after incubation, medium was removed and cells exposed to 100 uL medium/well with the indicated concentrations of palmitate, glucose, test compounds and/or vehicle. After 24 hours, cells were aspirated and incubated for 45 min in phenol […] RPMI (Invitrogen) containing 10 μM CM-H2DCFDA probe (Molecular Probes). Wells were subsequently washed twice with phenol red-free RMPI, incubated for 3 min with Hoechst 33342 (10 ug/mL) in phenol red-free media, followed by a final washing step. Fluorescence was captured by an IX Micro automated fluorescence microscope (Molecular Devices) and quantification of ROS per cell was analyzed using MetaXpress software (Molecular Devices). Each condition was assayed in five biological replicates. Glucolipotoxicity causes oxidative stress in β cells via increased ROS formation from mitochondria. […] ROS formation per cell (48 hrs) was measured using the CM-H2DCFDA probe and Hoechst staining. Data are presented as fold to CTRL+SEM n=3-4, ns=not significant, **p<0.01, ***p<0.001 vs unexposed cells; #p<0.05, ##p<0.01, vs. GLT treated cells, ANOVA with Tukey corrected test.

Human islets = assay: Glucolipotoxicity-induced apoptosis in human islets, caspase-3 activity assay; type: cell-based; conditions: 10 μM, 0.5 mM palmitate and 25 mM glucose, 72 h
Text: Human islets were provided by the Integrated Islet Distribution Program administered by the City of Hope Hospital (IIDP: http://iidp.coh.org/). The average reported purity was 85%±5.2 and viability was 94%±0.6 (age 50±5 years, body mass index 31±2.7 kg/m2). Causes of death were head trauma (n=3), stroke and anoxia. Islets were dissociated and seeded (30,000 cells/well) into black optical 96-well plates (Corning Life Sciences) that coated with HTB-9 extracellular matrix as previously described. (Walpita, D., et al. (2012) J. Biomol. Screen. 17, 509-518.) The dissociated islet cell cultures were allowed to attach and grow in CMRL media in 10% FBS for 3 days before exposure to palmitate (0.5 mM) and high glucose (25 mM) in medium with 1% BSA and without FBS for 72 hours.
(§1) Compounds of the invention protect against combined palmitate and high glucose induced apoptosis in INS-1E cells. […] Apoptosis was measured by caspase-3 activity assay.

HDAC3 = HDAC3 (Homo sapiens (Human), UniProt O15379); assay: Kinetics of the inhibition of HDAC3
HDAC5 = HDAC5 (Homo sapiens (Human), UniProt Q9UQL6); assay: Caliper HDAC enzymatic endpoint assay, HDAC5; type: biochemical; conditions: Table 2C; read-out: HDAC5 IC50 after 0 hr preincubation
Protocol: The Caliper HDAC Assay Buffer (acronym HAB, 1 liter) was prepared as follows:
Substrate B was prepared as 2 mM in 100% DMSO. Its final concentration in the assay for HDACs 4, 5, 7, 8, 9 is 2 μM.
LBH was used as quench inhibitor to stop the reaction at the end point.
IC50 values are in micromolar.

Rat islets = assay: Glucolipotoxicity-induced apoptosis in rat islets, cell death ELISA; type: cell-based; conditions: 10 μM, 0.5 mM palmitate and 25 mM glucose, 60 h
Protocol: Rat islets (50 islets/well) were cultured in 48-well plates (NUNC) and exposed to palmitate (0.5 mM) and glucose (25 mM) in medium supplemented with 1% FBS and 1% BSA for 60 hours. Cell death was determined in biological duplicates using a cell death ELISA assay (Roche).
as §1

HDAC3, sequence (O15379 whole entry): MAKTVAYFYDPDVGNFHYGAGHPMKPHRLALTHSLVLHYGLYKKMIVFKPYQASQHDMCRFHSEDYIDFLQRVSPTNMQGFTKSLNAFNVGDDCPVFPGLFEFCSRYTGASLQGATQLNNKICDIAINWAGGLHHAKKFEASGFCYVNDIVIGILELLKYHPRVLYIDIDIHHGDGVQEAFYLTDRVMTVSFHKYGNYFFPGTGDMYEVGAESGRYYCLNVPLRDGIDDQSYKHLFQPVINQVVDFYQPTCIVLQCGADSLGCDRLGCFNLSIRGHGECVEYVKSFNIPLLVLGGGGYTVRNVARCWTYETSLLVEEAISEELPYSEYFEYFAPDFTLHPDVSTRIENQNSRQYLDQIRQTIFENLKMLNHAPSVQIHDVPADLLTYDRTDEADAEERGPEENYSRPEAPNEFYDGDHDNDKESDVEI
HDAC3, sequence (Q9Y618 395-489 partner): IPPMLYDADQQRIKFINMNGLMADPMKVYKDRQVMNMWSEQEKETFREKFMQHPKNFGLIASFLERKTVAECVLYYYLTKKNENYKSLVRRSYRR
T1 sequence (Q92769 whole entry): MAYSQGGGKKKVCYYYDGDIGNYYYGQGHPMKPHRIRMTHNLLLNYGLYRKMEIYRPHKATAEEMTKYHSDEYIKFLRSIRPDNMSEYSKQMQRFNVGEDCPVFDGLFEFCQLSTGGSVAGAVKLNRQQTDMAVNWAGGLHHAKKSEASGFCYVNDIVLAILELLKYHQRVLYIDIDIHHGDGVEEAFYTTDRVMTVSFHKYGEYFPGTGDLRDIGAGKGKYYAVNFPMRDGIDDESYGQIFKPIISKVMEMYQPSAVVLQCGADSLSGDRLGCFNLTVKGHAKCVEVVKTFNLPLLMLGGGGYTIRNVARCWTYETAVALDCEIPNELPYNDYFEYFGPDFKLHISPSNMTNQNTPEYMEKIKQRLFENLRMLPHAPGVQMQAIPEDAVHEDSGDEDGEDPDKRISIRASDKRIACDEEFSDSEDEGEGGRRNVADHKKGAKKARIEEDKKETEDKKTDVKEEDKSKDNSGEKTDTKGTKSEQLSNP
HDAC1, sequence (Q13547 whole entry): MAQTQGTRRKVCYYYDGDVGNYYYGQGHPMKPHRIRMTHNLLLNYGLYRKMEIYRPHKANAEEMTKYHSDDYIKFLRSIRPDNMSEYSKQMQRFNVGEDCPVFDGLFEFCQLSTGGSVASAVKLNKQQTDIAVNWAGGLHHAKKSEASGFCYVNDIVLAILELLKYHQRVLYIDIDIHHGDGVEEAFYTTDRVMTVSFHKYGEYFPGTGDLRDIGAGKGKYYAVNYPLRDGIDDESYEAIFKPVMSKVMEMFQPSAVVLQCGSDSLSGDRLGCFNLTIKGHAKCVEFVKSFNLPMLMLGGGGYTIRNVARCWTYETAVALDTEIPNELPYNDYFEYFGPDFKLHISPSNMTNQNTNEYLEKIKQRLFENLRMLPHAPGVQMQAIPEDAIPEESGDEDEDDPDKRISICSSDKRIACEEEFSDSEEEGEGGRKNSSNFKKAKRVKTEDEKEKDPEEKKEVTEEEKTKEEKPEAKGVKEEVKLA
HDAC5, sequence (Q9UQL6 whole entry): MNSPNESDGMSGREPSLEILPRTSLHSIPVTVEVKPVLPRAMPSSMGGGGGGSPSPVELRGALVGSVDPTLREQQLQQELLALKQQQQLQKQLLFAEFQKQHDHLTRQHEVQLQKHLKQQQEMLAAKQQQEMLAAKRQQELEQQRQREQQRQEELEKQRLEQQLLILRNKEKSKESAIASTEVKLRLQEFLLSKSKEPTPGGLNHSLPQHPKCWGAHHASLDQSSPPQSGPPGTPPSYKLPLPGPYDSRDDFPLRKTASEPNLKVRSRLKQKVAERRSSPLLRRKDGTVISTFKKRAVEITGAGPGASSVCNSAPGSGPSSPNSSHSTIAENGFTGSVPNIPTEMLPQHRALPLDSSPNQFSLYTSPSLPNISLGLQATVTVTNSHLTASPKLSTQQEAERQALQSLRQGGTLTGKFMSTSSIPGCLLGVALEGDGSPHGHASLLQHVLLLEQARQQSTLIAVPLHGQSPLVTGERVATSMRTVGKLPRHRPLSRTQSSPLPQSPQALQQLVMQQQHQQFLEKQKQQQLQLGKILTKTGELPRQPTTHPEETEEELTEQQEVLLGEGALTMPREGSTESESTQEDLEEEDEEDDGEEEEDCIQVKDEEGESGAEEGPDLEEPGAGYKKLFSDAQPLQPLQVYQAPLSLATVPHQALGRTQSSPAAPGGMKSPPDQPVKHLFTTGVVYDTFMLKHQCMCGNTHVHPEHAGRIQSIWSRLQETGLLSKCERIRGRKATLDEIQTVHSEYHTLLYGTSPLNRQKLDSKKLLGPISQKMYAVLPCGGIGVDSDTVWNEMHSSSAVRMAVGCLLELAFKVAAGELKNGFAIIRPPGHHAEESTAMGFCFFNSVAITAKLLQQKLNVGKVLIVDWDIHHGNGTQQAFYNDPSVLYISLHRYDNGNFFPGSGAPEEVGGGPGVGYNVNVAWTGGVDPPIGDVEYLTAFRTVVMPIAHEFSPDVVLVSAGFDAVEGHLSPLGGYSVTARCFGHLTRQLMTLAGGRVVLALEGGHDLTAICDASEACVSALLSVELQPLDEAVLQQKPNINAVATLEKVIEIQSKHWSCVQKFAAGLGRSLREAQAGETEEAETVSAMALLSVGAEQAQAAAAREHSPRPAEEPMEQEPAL

CC(=O)Nc1ccc(C(=O)Nc2ccc(F)cc2N)cc1 [Compound 1, 4-acetamido-N-(2-amino-4-fluorophenyl)benzamide]
IC50 (HDAC2 [1]; read-out: HDAC2 IC50 3 h Prein, Table 2, 3 h preincubation): 1.42 µM | IC50 (HDAC2 [1]; read-out: HDAC2 IC50 3 h Preinc, Table 2A, 3 h preincubation): 1.42 µM | IC50 (HDAC2 [1]; read-out: HDAC2 IC50 @3 hr, 3 hr preincubation): 1.42 µM | Ki (HDAC2 [2]): ~6.3 µM | koff (HDAC2 [2]): 0.000867 s⁻¹ | Ki (HDAC2 [2]; HDAC2): 6.3 µM | Kon (HDAC2 [2]; HDAC2): 0.0082 min^−1, uM^−1 and ~0.0082 min^−1, uM^−1 | koff (HDAC2 [2]; HDAC2): 0.000867 s⁻¹ | type of binding to HDAC2 (words) (HDAC2 [2]; HDAC2): fast off inhibitor | type of binding to HDAC2 (words) (HDAC2 [2]; HDAC2, listed as compound 1): slow on/fast off rates | T1/2 (HDAC2 [2]; HDAC2 residence): 13 min | KI (inactivation) (HDAC1; HDAC1, values marked *, read-out: Ki (binding constant derived from HDAC1 inactivation kinetics)): 5.1 µM | Kd (HDAC1; from Kinactivation vs concentration, read-out: Kd of HDAC1-Compound 1 complex): 5.1 µM | insulin gene Ins1 expression (INS-1E cells [3]): partially restoring insulin gene Ins1 expression | insulin gene Ins2 expression (INS-1E cells [3]): partially restoring insulin gene Ins2 expression | glucolipotoxicity-induced ROS formation (INS-1E cells [4]): reduces glucolipotoxicity-induced ROS formation | glucolipotoxicity-induced apoptosis in human islets (Human islets): decreases glucolipotoxicity-induced apoptosis in human islets | koff (HDAC3): 0.000147 s⁻¹ | Ki (HDAC3; HDAC3): 0.029 µM | Kon (HDAC3; HDAC3): 0.30 min^−1, uM^−1 and 0.3 min^−1, uM^−1 | koff (HDAC3; HDAC3): 0.000147 s⁻¹ | type of binding to HDAC3 (words) (HDAC3; HDAC3): slow, tight-binding inhibitor | type of binding to HDAC3 (words) (HDAC3; HDAC3, listed as compound 1): fast on/slow off binding | T1/2 (HDAC3; HDAC3 residence): 79 min | binding selectivity (Ki) for HDAC3 versus HDAC1 (HDAC3; thermodynamic (Ki)): 175 fold | binding selectivity (Ki) for HDAC3 versus HDAC2 (HDAC3; thermodynamic (Ki)): 217 fold | IC50 (HDAC5): > 33 µM | glucolipotoxicity-induced apoptosis in rat islets (Rat islets): decreases glucolipotoxicity-induced apoptosis in rat islets
